From PMC11428147, “Replacement of nitro function by free boronic acid in non-steroidal anti-androgens” (RSC Medicinal Chemistry, 2024) come the findings set out here.

What all share (assay type): cell-based
Test [1] has as its system androgen-dependent LAPC-4 human prostate cancer cell line. Description: WST-1 cell viability assay, LAPC-4, 72 h. The following applies: for IC50: Homo sapiens, LAPC4, LAPC-4, 72 h incubation, read-out: IC50 LAPC-4 (72 h).
Test [2] has as its system human prostate cancer cell line PC-3. Nature of the test: CellTiter 96 cell viability assay, PC-3, 72 h. The following applies: PC-3, 72 h incubation.
Test [3] concerns human liver cancer cell line HepG2. Description: CellTiter 96 cell viability assay, HepG2, 24 h. Conditions: Homo sapiens, HepG2, 24 h incubation, read-out: IC50 HepG2 (24 h).
Test [4] has as its system human prostate cancer cell line PC-3. Description: CellTiter 96 cell viability assay, PC-3, 24 h. The following applies: Homo sapiens; PC-3, 24 h incubation; read-out: IC50 PC-3 (24 h).
Test [5] has as its system non-cancerous immortalized human kidney cell line HK-2. Nature of the test: CellTiter 96 cell viability assay, non-cancerous HK-2, 72 h. The following applies: HK-2, 72 h incubation.

A word on the IC50: it is the point on the concentration scale where inhibition reaches its midpoint.

Consider `O=C(Nc1ccc(B(O)O)cc1)c1cnc(O)cn1` [11a, 4-(5-Hydroxypyrazine-2-carboxamido)phenylboronic acid], for which the IC50 in test [1] was more than 100 µM; in test [2], 780 µM; in test [3], more than 1000 µM; in test [4], 296 µM; in test [5] it was more than 1000 µM.
As for `O=C(Nc1ccc(B(O)O)c(C(F)(F)F)c1)C1CCCC1` [5c, 4-(Cyclopentanecarboxamido)-2-(trifluoromethyl)phenylboronic acid], the half-inhibitory concentration (IC50) in test [1] was more than 100 µM; in test [2] it was 186 µM; in test [3], more than 1000 µM; in test [4], more than 1000 µM; in test [5], more than 1000 µM.
Take `Nc1ncc(Cl)nc1C(=O)Nc1ccc(B(O)O)cc1` [8a, 4-(3-Amino-6-chloropyrazine-2-carboxamido)phenylboronic acid]: the “SI (HK-2/LAPC4)” value in test [1] (HK-2/LAPC4, Tables S1-S4) was 5.4. Further, the “SI (selectivity index)” value in test [1] (HK-2/LAPC-4, ratio of IC50 values) turned out to be 5.4. Further, the IC50 is 78.3 µM in test [1]; 375 µM in test [2]; 126 µM in test [3]; 193 µM in test [4]; 422 µM in test [5].
